Measurements as given in US20260028352A1, “MACROCYCLIC IMIDAZO [1,2-B] PYRIDAZINE DERIVATIVE, PREPARATION METHOD THEREFOR, AND USE THEREOF” (SUZHOU LANGRUI BIOPHARMACEUTICAL CO., LTD., priority 2022, published 2026).

Legend:
[1] = test system: Ba/F3-TPM3-NTRK1-G667C cells; assay: Growth inhibition of Ba/F3-TPM3-NTRK1-G667C cells (Cell Titer-Glo); format: cell-based; settings: 72 hours, CTG; read-out: inhibitory activity IC50 Ba/F3-TPM3-NTRK1-G667C
Protocol: (§1) Then the solutions were subjected to a gradient dilution with DMSO: a clean, sterile V-bottom 96-well microplate was placed in the biological safety cabinet. First, 4 μL of DMSO was added to well B2 and 10 μL of DMSO was added to wells B3-B11 respectively; Next, 6 μL of the 10 mM solution was added to well B2. The microplate was pipetted up and down 10 times for mixing. […] Mixing was performed by pipetting up and down 10 times. The solution was diluted in order until well B10. only DMSO was added to well B11 (no compound).
(§2) 6× Compound Solution Preparation (6-fold dilution, × represents dilution factor): (Initial final concentration: 10 μM), a clean, sterile V-bottom 96-well microplate was placed in the biological safety cabinet. 99 μL of cell culture medium was added to each well from B2 to G11. By using a 12-channel pipettor, 1 μL of the compound solution prepared in the previous step was added into the corresponding wells. The solutions were pipetted up and down 10 times to mix the solutions. The highest concentration of compound in this step was 60 μM.
(§3) Treatment of Cells: the above-prepared cell culture plate was taken out of the incubator. 20 μL of compound solution from each well was added to the corresponding cell culture wells. The lowest pipetting speed was used and touching the bottom of the plate was avoided. The culture plate was gently shaked to mix the compound solution, then the plate was returned to the incubator for further culture for 72 hours.
(§4) The highest treatment concentration of the compound was 10 μM. After 72 hours of treatment, the Cell Titer-Glo (CTG) assay was performed. First, the cell culture plate was removed from the CO2 incubator and allowed to stand at room temperature for 30 minutes to ensure uniform temperature of the plate. The pre-prepared Cell Titer-Glo reagent (following the manufacturer's instructions) was taken and allowed to stand at room temperature to thaw. 60 μL of Cell Titer-Glo reagent was added to each well containing cells. The cells were incubated on a horizontal shaker in a dark place at 225 rpm for 1 hour at room temperature. Then, a Tecan Spark microplate reader was used to read the plate using chemiluminescence according to the manufacturer's instructions.

[2] = test system: Ba/F3-TPM3-NTRK1-G595R cells; assay: Growth inhibition of Ba/F3-TPM3-NTRK1-G595R cells (Cell Titer-Glo); format: cell-based; settings: 72 hours, CTG; read-out: inhibitory activity IC50 Ba/F3-TPM3-NTRK1-G595R
Protocol: as §1, §2, §3, §4

[3] = test system: Ba/F3-TPM3-NTRK1-WT cells; assay: Growth inhibition of Ba/F3-TPM3-NTRK1-WT cells (Cell Titer-Glo); format: cell-based; settings: 72 hours, CTG; read-out: inhibitory activity IC50 Ba/F3-TPM3-NTRK1-WT
Protocol: as §1, §2, §3, §4

TRKA^WT kinase = TRKA^WT kinase (Homo sapiens (Human), UniProt P04629); assay: Inhibitory activity against TRKA WT kinase (Caliper mobility shift); format: biochemical; settings: in vitro kinase assay
Protocol: Kinase Assay Process: 1× Kinase buffer was prepared. […] The compounds were serially diluted into 10 concentrations ([…], 0.15, and 0.05 nM) using a Precision 3-fold dilution method. By using the Echo550 liquid handler, 250 nL of the 100-fold final concentration compound was transferred to an OptiPlate-384F plate. a 2.5× final concentration kinase solution was prepared using 1× Kinase buffer. 10 μL of the 2.5× final concentration kinase solution was added to the compound wells and the positive control wells, and 10 μL of 1× Kinase buffer was added to the negative control wells. The plate was centrifuged at 1000 rpm for 30 seconds, vortexed for mixing, and then incubated at room temperature for 10 minutes. A mixture of 5/3× final concentration of ATP and Kinase Substrate 22 was prepared using 1× Kinase buffer. 15 μL of the mixture of the 5/3× final concentration ATP and the substrate was added to initiate the reaction, the 384-well plate was centrifuged at 1000 rpm for 30 seconds, vortexed for mixing, and incubated at room temperature for the required time. 30 μL of the termination solution was added to stop the kinase reaction, the plate was centrifuged at 1000 rpm for 30 seconds, and vortexed for mixing. The conversion rate was measured using the Caliper EZ Reader.
Data Analysis: the inhibition rate was calculated as follows:
% Inhibition=(Conversion %_max−conversion %_sample)÷(Conversion %_max−conversion %_min)×100
Conversion %_sample is the conversion rate reading for the sample; Conversion %_min is the average value of the negative control wells, representing the conversion rate for wells without enzyme activity: Conversion %_max is the average value of the positive control wells, representing the conversion rate for wells without compound inhibition. A dose-response curve was fitted using the log concentration of the compound as the X-axis and the percentage inhibition as the Y-axis. The log(inhibitor) vs. response-variable slope of the GraphPad Prism 5 software was used to fit the dose-response curve, and the IC50 value for each compound was obtained. The calculation formula is:
Y=Bottom+(Top−Bottom)/(1+10^((Log IC50−X)*HillSlope)).
wherein X represents the concentration of the compound to be tested; Y represents the inhibition rate at the concentration X: Top refers to the maximum response: Bottom refers to the baseline response; HillSlope refers to the slope of the curve (i.e., the gradient).

Chain of TRKA^WT kinase (P04629 33-796): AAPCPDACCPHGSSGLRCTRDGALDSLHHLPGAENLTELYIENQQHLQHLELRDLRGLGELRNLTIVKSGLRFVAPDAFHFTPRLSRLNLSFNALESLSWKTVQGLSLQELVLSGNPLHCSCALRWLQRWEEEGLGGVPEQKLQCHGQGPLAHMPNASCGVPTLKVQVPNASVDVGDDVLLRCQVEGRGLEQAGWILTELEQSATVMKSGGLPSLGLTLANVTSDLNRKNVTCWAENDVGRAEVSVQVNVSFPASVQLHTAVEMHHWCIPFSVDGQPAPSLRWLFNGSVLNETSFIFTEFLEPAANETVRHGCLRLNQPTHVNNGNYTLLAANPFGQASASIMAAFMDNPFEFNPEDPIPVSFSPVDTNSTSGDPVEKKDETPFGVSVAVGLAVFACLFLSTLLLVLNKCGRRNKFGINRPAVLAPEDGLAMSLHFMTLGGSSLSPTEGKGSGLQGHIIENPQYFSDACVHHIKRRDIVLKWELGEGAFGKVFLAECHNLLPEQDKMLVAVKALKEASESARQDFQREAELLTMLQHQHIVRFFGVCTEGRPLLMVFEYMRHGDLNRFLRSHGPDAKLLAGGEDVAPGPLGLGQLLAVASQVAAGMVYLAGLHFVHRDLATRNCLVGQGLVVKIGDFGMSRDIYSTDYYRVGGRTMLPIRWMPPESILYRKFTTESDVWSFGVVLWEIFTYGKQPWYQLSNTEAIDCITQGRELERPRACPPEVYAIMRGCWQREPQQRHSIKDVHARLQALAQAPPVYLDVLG

Row | Molecule | IC50 [1] [nM] | IC50 [2] [nM] | IC50 [3] [nM] | IC50 (TRKA^WT kinase) [nM]
1 | CC1Nc2ccc3ncc(n3n2)-c2cc(ccn2)CCOc2ccccc21 (stereo not drawn) [Example I-9, (E)-4-methyl-6-oxa-3-aza-2(3,6)-imidazo[1,2-b]pyridazina-1(2,4)-pyridina-5(1,2)-benzenacyclooctaphane] | 308 | 297 | 11 | 
2 | CC1Nc2ccc3ncc(n3n2)-c2cc(ncn2)COc2ccccc21 (stereo not drawn) [Example I-10, (E)-6-methyl-4-oxa-7-aza-1(3,6)-imidazo[1,2-b]pyridazina-2(4,6)-pyrimidine-5(1,2)-benzenacycloheptaphane] | 378 | 378 | 4.6 | 
3 | CC1Nc2ccc3ncc(n3n2)-c2cc(ncn2)CCOc2ccccc21 (stereo not drawn) [Example I-11, […]] | 419 | 419 | 2.5 | 
4 | C[C@@H]1Nc2ccc3ncc(n3n2)-c2cncc(c2)COc2ccc(F)cc21 [Example I-23, (S)-(E)-5^4-fluoro-6-methyl-4-oxa-7-aza-1(3,6)-imidazo[1,2-b]pyridazina-2(3,5)-pyridina-5(1,2)-benzenacycloheptaphane] |  |  |  | 4.8
5 | C[C@@H]1Nc2ccc3ncc(n3n2)-c2cc(ncn2)COc2ccccc21 [Example I-27, (6S,E)-6-methyl-4-oxa-7-aza-1(3,6)-imidazo[1,2-b]pyridazina-2(4,6)-pyrimidina-5(1,2)-benzenacycloheptaphane] |  |  |  | 3.7
6 | C[C@@H]1Nc2ccc3ncc(n3n2)-c2cc(ccn2)CCOc2ccccc21 [Example I-29, (4S,E)-4-methyl-6-oxa-3-aza-2(3,6)-imidazo [1,2-b]pyridazina-1(2,4)-pyridina-5(1,2)-benzenacyclooctaphane] |  |  |  | 4.9
7 | C[C@@H]1Nc2ccc3ncc(n3n2)-c2cc(ccn2)OCc2ccc(F)cc21 [Example I-31, (S)-(E)-5^4-fluoro-6-methyl-3-oxa-7-aza-1(3,6)-imidazo[1,2-b]pyridazina-2(2,4)-pyridina-5(1,2)-benzenacycloheptaphane] |  |  |  | 5.7
8 | C[C@@H]1Cc2ccnc(c2)-c2cnc3ccc(nn23)N2C[C@@H](F)C[C@@H]2c2cc(F)ccc2O1 [Example I-39, (3^2R,3^4S,6R,E)-3^4,4^5-difluoro-6-methyl-5-oxa-2(3,6)-imidazo[1,2-b]pyridazina-1(2,4)-pyridina-3(1,2)-pyrrolidina-4(1,2)-benzenacycloheptaphane] | 0.3 | 0.1 | 0.01 | 
9 | C[C@@H]1Cc2ccnc(c2)-c2cnc3ccc(nn23)N2C[C@@H](F)C[C@@H]2c2cc(F)cnc2O1 [Example I-40, (3^2R,3^4S,6R,E)-3^4,4^5-difluoro-6-methyl-5-oxa-2(3,6)-imidazo[1,2-b]pyridazina-1(2,4),4(3,2)-dipyridina-3(1,2)-pyrrolidinacycloheptaphane] | 0.1 | 0.1 | 0.01 | 
10 | Fc1ccc2c(c1)[C@H]1C[C@H](F)CN1c1ccc3ncc(n3n1)-c1cc(ccn1)CO2 [Example I-50, (14bR,16S,E)-13,16-difluoro-14b,15,16,17-tetrahydro-9H-1,19-etheno-4,8-(metheno)benzo[b]imidazo[1,5-h]pyrrolo[2,1-d][1]oxa[5,7,8,11]tetraazacyclopentadecine] | 0.3 | 0.2 | 0.1 | 
11 | Fc1ccc2c(c1)[C@H]1C[C@H](F)CN1c1ccc3ncc(n3n1)-c1cc(ccn1)CCO2 [Example I-54, (3^2R,3^4S,E)-3^4,4^5-difluoro-5-oxa-2(3,6)-imidazo[1,2-b]pyridazina-1(2,4)-pyridina-3(1,2)-pyrrolidina-4(1,2)-benzenacycloheptaphane] | 2.1 | 0.4 | 0.18 | 
12 | Fc1cnc2c(c1)[C@H]1C[C@H](F)CN1c1ccc3ncc(n3n1)-c1cc(ccn1)CCO2 [Example I-56, (3^2R,3^4S,E)-3^4,4^5-difluoro-5-oxa-2(3,6)-imidazo[1,2-b]pyridazina-1(2,4), 4(3,2)-dipyridina-3(1,2)-pyrrolidinacycloheptaphane] | 9.4 | 0.9 | 0.2 | 
13 | Fc1ccc2c(c1)[C@H]1C[C@H](F)CN1c1ccc3ncc(n3n1)-c1cc(ncn1)CO2 [Example I-58, (14bR,16S,E)-13,16-difluoro-14b,15,16,17-tetrahydro-9H-1,19-etheno-4,8-(metheno)benzo[n]imidazo[5,1-h]pyrrolo[1,2-l][1]oxa[4,6,9,10,12]pentaazacyclopentadecine] | 12.7 | 2.1 | 0.14 | 
14 | Fc1cnc2c(c1)[C@H]1C[C@H](F)CN1c1ccc3ncc(n3n1)-c1cc(ncn1)CO2 [Example I-60, (14bR,16S,E)-13,16-difluoro-14b,15,16,17-tetrahydro-9H-1,19-etheno-4,8-(metheno)imidazo[5,1-h]pyrido[3,2-n]pyrrolo[1,2-l][1]oxa[4,6,9,10,12]pentaazacyclopentadecine] | 22.5 | 2.5 | 0.13 | 
15 | Fc1ccc2c(c1)[C@H]1C[C@H](F)CN1c1ccc3ncc(n3n1)-c1nccc(n1)CO2 [Example I-62, (14bR,16S,E)-13,16-difluoro-14b,15,16,17-tetrahydro-9H-4,8-(azeno)-1,19-ethenobenzo[b]imidazo[1,5-h]pyrrolo[2,1-d][1]oxa[5,7,8,11]tetraazacyclopentadecine] | 13.6 | 0.7 | 0.21 | 
16 | Fc1cnc2c(c1)[C@H]1C[C@H](F)CN1c1ccc3ncc(n3n1)-c1nccc(n1)CO2 [Example I-64, (14bR,16S,E)-13,16-difluoro-14b,15,16,17-tetrahydro-9H-4,8-(azeno)-1,19-ethenoimidazo[1,5-h]pyrido[2,3-b]pyrrolo[2,1-d][1]oxa[5,7,8,11]tetraazacyclopentadecine] | 8.5 | 0.9 | 0.3 | 
17 | Fc1ccc2c(c1)[C@H]1C[C@H](F)CN1c1ccc3ncc(n3n1)-c1cc(cnn1)CO2 [Example I-66, (14bR,16S,E)-13,16-difluoro-14b,15,16,17-tetrahydro-9H-1,19-etheno-4,8-(metheno)benzo[n]imidazo[5,1-h]pyrrolo[1,2-l][1]oxa[5,6,9,10,12]pentaazacyclopentadecine] | 1.3 | 0.4 | 0.05 | 
18 | (R)-(E)-4-methyl-6-oxa-3-aza-2(3,6)-imidazo[1,2-b]pyridazina-1(4,6)-pyrimidina-5(1,2)-benzenacyclooctaphane [Example I-33] |  |  |  | 5.9
19 | (S)-(E)-5^5-fluoro-6-methyl-3-oxa-7-aza-1(3,6)-imidazo[1,2-b]pyridazina-2(2,4), 5(2,3)-dipyridinacycloheptaphane [Example I-25] |  |  |  | 5.1
